Source: US9783510B2, “Small molecule mediated transcriptional induction of E-cadherin” (Vanderbilt University, priority 2014, dated 2017)

What was measured:
[1] = test system: E-cadherin expression in H520 cells; experiment: E-cadherin expression, in-cell Western (ICW), H520 cells; type: cell-based; conditions: Homo sapiens, NCI-H520
Description: SW620 and H520 cells (5×10^4/100 μL) were seeded in a 96-well plate prior to treatment. Cells were treated with 10 μM concentration of synthesized compound in quadruplicate for 24 hours in RPMI 1640 supplemented medium and 100 μg/mL penicillin-streptomycin. The cells were then fixed with 100% methanol for 20 minutes at 4° C. The wells were then washed 2 times with PBS, permeabilized in 2% bovine serum albumin (BSA) and 0.2% TritonX-100 in PBS for 30 minutes at room temperature with gentle agitation, and blocked in LI-COR blocking buffer for 30 minutes at room temperature with gentle agitation. The cells were then incubated with the following primary antibodies: anti-E-Cadherin (1:500) and anti-α-Tubulin (1:1000) diluted in blocking buffer (1:1 dilution in PBS) for 2 hours at room temperature with gentle agitation. The cells were washed 4 times in PBS-T for 5 minutes each, and then incubated with the following secondary antibodies conjugated to a fluorescent entity: IRDye 800-conjugated goat anti-rabbit IgG (1:1000) and IRDye-700-conjugated goat anti-mouse IgG (1:2000) in blocking buffer (1:1 dilution in PBS) with gentle agitation for 1 h at room temperature. The cells were washed 4 times in PBS-T for 5 minutes each followed by a single wash with PBS. All liquid was removed from the wells and the plates were visualized and analyzed on the Odyssey IR imaging system (LI-COR Biosciences).
The assay was further optimized in the following manner. The cells were washed 2 times with PBS, fixed in 100% methanol at room temperature for 15 minutes, and again washed 2 times with PBS. The cells were then incubated with the following primary antibodies: anti-E-Cadherin (1:200) and anti-α-Tubulin (1:2000) diluted in ice cold 2% bovine serum albumin (BSA) and 0.2% TritonX-100 in PBS for 1 hour at room temperature with gentle agitation. The cells were washed 2 times in PBS and then incubated with the following secondary antibodies conjugated to a fluorescent entity: Licor 800-conjugated goat anti-rabbit IgG (1:2000) and IRDye-700-conjugated goat anti-mouse IgG (1:2000) in ice cold 2% BSA and 0.2% TritonX-100 in PBS with gentle agitation for 45 minutes at room temperature. The wells were washed 2 times in PBS, dried, and analyzed as previously mentioned.
Changes in expression level of E-cadherin in response to 10 μM compound in H520 cells was determined in a cell-based functional assay as described above, and the data are shown in Table IV. The compound number corresponds to the compound numbers used in Table II.
EC50 of inducement of E-cadherin expression in H520 cells was determined in a cell-based functional assay as described above, and the data are shown in Table VI. The compound number corresponds to the compound numbers used in Table II.

[2] = Protein binding in vitro, human samples; type: in vitro ADME
Description: (§1) The potency and efficacy of Compound 13 was evaluated in vivo. For these studies, the pharmacokinetics of Compound 13 were first evaluated in vitro and in vivo (FIG. 14).

Clearance in vitro, rat = type: in vitro ADME
Description: as §1

O=C(NCCCNC(=O)c1cccnc1O)c1cc(-c2ccccc2)on1 [Compound 13, N-(3-(2-hydroxynicotinamido)propyl)-5-phenylisoxazole-3-carboxamide]
fold induction at 10 µM ([1]; change in expression level of E-cadherin in response to 10 μM compound, 24 hours, H520 cells): 5.54
EC50 ([1]; inducement of E-cadherin expression in H520 cells): 1 µM
protein binding [2]: relatively high
clearance (Clearance in vitro, rat): very moderate
